ChEMBL document CHEMBL1201862, “PubChem BioAssay data set” (2004)
Active and inactive are the calls of the source.

How the values were obtained:
[1] = viability of uninfected HEp-2 cells – cell-based, HTS, cytotoxicity control for RSV inhibitor project, dose response (AID 2410); type: functional; details: human respiratory syncytial virus
[2] = HIV-1 AD8 envelope cell-cell fusion blockers – cherry-pick, dose response (AID 652062); type: functional, cell-based;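 also: luciferase signal from cell-cell fusion driven by HIV-1 clade B AD8 Env; potency is for inhibitors of fusion seen as a drop in luminescence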
[3] = blockers of HIV-1 ZM109 envelope-driven cell-cell fusion – HeLa effector, CEM target cells, luciferase, cherry-pick, dose response (AID 652058); type: functional, cell-based;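 also: luciferase signal from HIV-1 Env mediated cell-cell fusion of effector and target cells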
[4] = blockers of HIV-1 envelope-mediated cell-cell fusion – cherry-pick, dose response (AID 652057); type: functional, cell-based
[5] = off-target signal loss in HeLa-CEM21 co-culture – HeLa F-luc CTL cells, cherry-picked, counter-screen for HIV-1 Env fusion inhibitor project, dose response (AID 652040); type: functional, cell-based;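 also: potency for signal decrease marking cytotoxic or nonspecific inhibition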
[6] = target: T1, COUP transcription factor 2 (Homo sapiens, UniProt P24468); experiment: Luminescence-based cell-based high throughput dose response assay to identify inhibitors of COUP-TFII (NR2F2).; type: functional;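 also: HEK293 cells transiently cotransfected with COUP-TFII expression vector and reporter; luciferase reporter luminescence driven by COUP-TFII from the pX2-168 reporter plasmid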
T1 sequence (P24468 whole entry): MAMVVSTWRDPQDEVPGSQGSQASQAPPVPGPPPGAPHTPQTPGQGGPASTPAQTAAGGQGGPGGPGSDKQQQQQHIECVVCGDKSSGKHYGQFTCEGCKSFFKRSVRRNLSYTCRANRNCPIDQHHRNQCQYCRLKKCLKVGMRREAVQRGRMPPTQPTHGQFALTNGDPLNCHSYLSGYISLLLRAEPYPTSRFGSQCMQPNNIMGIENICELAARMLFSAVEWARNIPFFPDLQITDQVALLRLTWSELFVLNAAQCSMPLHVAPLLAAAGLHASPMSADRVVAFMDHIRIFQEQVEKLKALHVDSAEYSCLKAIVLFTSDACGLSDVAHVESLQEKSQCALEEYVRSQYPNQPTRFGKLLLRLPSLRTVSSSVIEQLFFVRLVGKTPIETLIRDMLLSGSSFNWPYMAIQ

Protein skinhead-1 = target: T2, Protein skinhead-1 (Caenorhabditis elegans, UniProt P34707); type: functional
T2 sequence (P34707 whole entry): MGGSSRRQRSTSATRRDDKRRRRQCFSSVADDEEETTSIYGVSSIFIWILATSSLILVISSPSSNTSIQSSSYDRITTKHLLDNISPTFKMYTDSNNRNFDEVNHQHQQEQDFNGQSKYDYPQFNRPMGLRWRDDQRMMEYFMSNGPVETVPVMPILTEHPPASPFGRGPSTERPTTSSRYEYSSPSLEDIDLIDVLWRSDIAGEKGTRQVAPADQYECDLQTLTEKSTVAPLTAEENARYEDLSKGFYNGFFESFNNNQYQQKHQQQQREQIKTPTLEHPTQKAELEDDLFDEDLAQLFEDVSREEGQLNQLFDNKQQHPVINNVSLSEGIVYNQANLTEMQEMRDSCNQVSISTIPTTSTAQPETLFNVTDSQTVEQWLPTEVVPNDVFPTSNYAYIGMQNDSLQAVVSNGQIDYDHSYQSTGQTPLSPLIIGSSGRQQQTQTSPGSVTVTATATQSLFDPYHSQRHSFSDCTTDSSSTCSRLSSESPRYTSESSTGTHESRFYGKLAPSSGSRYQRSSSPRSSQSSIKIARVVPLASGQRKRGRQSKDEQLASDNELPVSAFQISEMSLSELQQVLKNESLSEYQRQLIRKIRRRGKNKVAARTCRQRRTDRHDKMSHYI

[7] = target: T3, Corticotropin-releasing factor receptor 2/Corticotropin-releasing factor-binding protein (Homo sapiens, UniProt P24387+Q13324); experiment: activators of CRF receptor 2 with binding protein – uHTS hits, confirmation (AID 602473); type: functional; details: read-out: EC50_Mean
T3 sequence (Q13324 whole entry): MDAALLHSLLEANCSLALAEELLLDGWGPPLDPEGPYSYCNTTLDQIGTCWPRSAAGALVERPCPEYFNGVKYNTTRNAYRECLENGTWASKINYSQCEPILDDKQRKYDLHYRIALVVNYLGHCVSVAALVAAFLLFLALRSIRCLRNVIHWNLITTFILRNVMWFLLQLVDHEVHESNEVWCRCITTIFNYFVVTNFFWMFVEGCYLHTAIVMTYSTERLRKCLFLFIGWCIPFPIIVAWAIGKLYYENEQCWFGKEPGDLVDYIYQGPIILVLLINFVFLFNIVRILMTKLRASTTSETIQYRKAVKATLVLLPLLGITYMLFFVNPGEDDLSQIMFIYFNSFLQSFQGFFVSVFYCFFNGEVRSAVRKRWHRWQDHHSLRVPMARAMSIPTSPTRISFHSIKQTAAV
T3 sequence (P24387 whole entry): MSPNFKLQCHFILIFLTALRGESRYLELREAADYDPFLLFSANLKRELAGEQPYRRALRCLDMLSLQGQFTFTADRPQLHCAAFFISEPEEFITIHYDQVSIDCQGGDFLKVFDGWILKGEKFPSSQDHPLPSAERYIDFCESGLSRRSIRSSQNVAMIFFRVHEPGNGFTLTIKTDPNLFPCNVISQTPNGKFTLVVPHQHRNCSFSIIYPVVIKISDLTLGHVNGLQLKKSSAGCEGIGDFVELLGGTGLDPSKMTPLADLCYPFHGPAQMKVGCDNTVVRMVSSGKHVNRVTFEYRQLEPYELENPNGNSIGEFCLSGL

[8] = target: T3, Corticotropin-releasing factor receptor 2/Corticotropin-releasing factor-binding protein; experiment: Dose Response confirmation of uHTS hits for small molecule antagonists of the CRF-binding protein and CRF-R2 receptor complex.; type: functional; details: read-out: IC50_Mean
[9] = target: T4, Mannose-6-phosphate isomerase (Homo sapiens, UniProt P34949); experiment: MPI inhibition at elevated mannose 6-phosphate – biochemical, fluorescence intensity, high mannose 6-phosphate, primary screen (AID 1220)
T4 sequence (P34949 whole entry): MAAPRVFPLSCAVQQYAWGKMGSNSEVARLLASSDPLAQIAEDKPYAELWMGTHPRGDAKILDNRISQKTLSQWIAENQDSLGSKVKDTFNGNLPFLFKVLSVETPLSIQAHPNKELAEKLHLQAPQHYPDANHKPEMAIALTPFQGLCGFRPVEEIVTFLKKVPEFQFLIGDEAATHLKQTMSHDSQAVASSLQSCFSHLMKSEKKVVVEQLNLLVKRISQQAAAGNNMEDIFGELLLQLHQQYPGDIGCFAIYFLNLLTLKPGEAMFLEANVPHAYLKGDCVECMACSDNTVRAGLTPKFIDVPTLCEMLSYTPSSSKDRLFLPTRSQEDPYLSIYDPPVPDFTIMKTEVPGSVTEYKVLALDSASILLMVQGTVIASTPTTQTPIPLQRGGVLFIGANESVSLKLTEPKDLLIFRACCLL

Fatty acid synthase [10] = target: T5, Fatty acid synthase (Homo sapiens, UniProt P49327); experiment: inhibition of human FAS-TE enzyme activity – biochemical, kinetic fluorescence intensity, dose response (AID 624326); type: functional;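 also: rate of fluorescence rise from hydrolysis of a fluorogenic O-methyl fluorescein ester substrate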
T5 sequence (P49327 whole entry): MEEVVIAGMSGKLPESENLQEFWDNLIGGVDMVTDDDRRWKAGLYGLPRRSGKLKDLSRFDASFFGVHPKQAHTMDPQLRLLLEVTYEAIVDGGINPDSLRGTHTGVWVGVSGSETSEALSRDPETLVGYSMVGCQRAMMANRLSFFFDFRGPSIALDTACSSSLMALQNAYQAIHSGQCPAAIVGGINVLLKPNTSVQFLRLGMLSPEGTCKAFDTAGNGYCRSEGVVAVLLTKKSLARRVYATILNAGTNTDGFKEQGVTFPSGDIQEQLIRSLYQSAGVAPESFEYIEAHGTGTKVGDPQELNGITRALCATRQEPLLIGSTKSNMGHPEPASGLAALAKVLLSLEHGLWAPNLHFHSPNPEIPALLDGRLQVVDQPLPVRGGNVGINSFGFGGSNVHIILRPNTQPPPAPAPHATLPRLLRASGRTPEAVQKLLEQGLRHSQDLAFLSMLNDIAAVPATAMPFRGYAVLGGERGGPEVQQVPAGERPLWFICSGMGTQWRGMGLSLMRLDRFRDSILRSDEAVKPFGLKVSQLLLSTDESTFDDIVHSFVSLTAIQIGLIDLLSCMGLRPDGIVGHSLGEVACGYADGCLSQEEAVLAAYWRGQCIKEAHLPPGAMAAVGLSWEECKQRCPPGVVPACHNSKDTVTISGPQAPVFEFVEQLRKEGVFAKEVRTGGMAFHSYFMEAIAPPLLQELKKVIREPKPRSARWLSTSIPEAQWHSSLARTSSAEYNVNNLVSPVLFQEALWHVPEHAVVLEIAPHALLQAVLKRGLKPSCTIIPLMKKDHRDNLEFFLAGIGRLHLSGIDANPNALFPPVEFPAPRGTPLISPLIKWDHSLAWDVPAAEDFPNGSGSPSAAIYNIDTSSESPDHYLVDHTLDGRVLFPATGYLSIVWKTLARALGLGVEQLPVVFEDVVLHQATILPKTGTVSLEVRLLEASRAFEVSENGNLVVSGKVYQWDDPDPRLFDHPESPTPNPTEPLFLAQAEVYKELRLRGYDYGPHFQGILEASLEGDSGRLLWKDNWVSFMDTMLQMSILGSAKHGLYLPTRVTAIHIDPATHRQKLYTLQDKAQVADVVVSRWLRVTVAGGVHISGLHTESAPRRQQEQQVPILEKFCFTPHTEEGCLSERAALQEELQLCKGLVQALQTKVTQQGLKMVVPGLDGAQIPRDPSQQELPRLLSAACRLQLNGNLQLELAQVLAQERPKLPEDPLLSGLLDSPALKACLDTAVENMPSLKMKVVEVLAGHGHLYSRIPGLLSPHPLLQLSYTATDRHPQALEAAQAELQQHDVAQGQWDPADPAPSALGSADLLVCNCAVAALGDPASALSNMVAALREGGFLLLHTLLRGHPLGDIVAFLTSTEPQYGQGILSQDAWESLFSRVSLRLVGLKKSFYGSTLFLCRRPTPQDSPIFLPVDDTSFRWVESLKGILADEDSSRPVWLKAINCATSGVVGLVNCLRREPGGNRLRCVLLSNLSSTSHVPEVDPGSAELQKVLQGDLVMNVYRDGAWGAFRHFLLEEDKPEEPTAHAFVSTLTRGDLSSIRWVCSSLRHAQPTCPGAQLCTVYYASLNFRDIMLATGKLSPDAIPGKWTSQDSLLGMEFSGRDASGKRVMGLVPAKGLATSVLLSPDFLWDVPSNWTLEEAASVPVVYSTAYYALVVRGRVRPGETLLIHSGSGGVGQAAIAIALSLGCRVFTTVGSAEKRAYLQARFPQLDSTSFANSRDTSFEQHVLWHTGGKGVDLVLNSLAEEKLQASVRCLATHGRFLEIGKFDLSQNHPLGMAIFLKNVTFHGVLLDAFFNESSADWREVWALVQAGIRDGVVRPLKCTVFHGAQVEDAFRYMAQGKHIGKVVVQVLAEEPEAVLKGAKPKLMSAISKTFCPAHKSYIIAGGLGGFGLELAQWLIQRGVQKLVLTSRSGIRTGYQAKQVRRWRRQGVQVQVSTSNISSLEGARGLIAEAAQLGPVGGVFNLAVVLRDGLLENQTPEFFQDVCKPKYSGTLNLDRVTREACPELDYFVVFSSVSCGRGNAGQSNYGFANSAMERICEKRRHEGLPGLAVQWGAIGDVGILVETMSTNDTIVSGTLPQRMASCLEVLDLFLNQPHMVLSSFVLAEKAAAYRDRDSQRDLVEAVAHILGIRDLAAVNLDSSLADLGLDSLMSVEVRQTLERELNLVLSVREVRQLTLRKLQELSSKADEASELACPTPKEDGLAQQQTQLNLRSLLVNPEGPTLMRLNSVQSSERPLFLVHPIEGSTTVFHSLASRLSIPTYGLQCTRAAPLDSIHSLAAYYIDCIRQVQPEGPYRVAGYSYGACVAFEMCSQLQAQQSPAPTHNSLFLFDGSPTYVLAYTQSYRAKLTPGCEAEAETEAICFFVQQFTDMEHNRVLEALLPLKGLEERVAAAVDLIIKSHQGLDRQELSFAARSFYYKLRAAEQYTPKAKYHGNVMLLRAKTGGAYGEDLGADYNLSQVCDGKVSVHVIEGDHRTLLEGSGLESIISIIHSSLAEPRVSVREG

Fatty acid synthase [11] = target: T5, Fatty acid synthase; experiment: inhibition of human FAS-TE enzyme activity – biochemical, endpoint fluorescence intensity, uHTS hits, dose response (AID 624327); type: functional;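 also: fluorescence from hydrolysis of an O-methyl fluorescein acyl ester substrate by the enzyme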
[12] = viability inhibitors of stage V gametocytes – luminescence, dose response (AID 1117278); type: functional, cell-based;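 also: gametocytes exposed to compound for 24 hours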
[13] = viability loss in human Jurkat cells – cell-based, luminescence, cytotoxicity control for P. falciparum gametocyte viability project, dose response (AID 1117277); type: functional;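 also: potency reflects loss of cellular ATP meaning fewer viable cells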
[14] = non-specific 3'UTR reporter inhibition in Clone20-Shn3RL – cell-based, Renilla luciferase, cherry-picked, counter-screen for Shn3 inhibitor project, dose response (AID 624133); type: functional
INS1 = experiment: INS-1E survival protection against cytokine death – cell-based, luminescence, retest, dose response (AID 449756); type: functional; details: Rattus norvegicus;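 also: cell death triggered by IL-1 beta plus TNF-alpha plus IFN-gamma mixture; protective hits raise ATP signal compared with cytokine alone wells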
Protein Wnt-3a = Protein Wnt-3a (Mus musculus, UniProt P27467); experiment: antagonism of Wnt3a pathway luciferase reporter – Wnt-LIGHT cells, luminescence, selectivity assay for Gli-SUFU antagonist project, dose response (AID 651570); type: functional; details: read-out: IC50_Mean;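 also: Wnt-LIGHT reporter cells stimulated with conditioned medium from Wnt3a-producing cells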
Protein Wnt-3a, sequence (P27467 whole entry): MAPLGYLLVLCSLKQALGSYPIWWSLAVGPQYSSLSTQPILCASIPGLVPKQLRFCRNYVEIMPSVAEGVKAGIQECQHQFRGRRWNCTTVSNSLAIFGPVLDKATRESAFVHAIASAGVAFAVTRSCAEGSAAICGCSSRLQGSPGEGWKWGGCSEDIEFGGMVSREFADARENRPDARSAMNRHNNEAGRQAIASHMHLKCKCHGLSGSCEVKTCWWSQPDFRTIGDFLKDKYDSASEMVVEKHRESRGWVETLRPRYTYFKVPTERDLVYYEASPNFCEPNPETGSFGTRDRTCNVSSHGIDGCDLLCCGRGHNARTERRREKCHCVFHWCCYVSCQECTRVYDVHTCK

[15] = loss of viability in HepG2 cells – cell-based, CellTiter-Glo, cherry-picked, cytotoxicity control for Shn3 inhibitor project, dose response (AID 624134); type: functional
[16] = reduction of Shn3 3'UTR-driven luciferase in osteoblasts – cell-based, Clone20 osteoblasts, firefly luciferase, cherry-picked, dose response (AID 624132); type: functional;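 also: firefly luciferase luminescence from reporter carrying the Shn3 3'UTR in osteoblasts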
[17] = HEK-293T cell viability reduction – luminescence, B-cell screen hits, cytotoxicity control for BCR NF-kB inhibitor project, dose response (AID 489021); type: functional, cell-based;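 also: HEK-293T cells carrying an NF-kB luciferase reporter; cells exposed to compound for about 14 hours before viability readout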
Paired box protein Pax-8 = Paired box protein Pax-8 (Homo sapiens, UniProt Q06710); experiment: PAX8 transcriptional activity inhibition in RMG-I – RMG-I cells, luciferase, cherry-pick, dose response (AID 687027); type: functional, cell-based;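 also: luciferase reporter driven by Pax8 target thyroperoxidase promoter measured by SteadyGlo luminescence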
Paired box protein Pax-8, sequence (Q06710 whole entry): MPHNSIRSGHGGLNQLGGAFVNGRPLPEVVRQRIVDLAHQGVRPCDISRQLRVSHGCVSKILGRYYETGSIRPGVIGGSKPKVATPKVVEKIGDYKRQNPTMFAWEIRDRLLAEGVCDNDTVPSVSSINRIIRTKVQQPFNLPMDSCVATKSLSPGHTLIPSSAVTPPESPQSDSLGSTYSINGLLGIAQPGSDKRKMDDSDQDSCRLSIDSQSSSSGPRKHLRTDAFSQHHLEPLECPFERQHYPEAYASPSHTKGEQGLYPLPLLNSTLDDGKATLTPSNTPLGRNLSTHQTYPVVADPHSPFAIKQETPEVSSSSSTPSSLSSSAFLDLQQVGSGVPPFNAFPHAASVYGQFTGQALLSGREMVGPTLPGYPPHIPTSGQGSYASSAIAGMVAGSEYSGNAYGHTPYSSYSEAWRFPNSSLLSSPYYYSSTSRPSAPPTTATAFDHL

[18] = IGROV1 cell killing – plate reader, dry powder samples, PAX8 inhibitor project, dose response (AID 743043); type: functional, cell-based; details: IGROV-1
[19] = OVCAR8 cell viability loss – plate reader, dry powder samples, PAX8 project, dose response (AID 743197); type: functional, cell-based; details: OVCAR-8
[20] = OVCAR-3 cell viability loss – plate reader, dry powder samples, PAX8 inhibitor project, dose response (AID 743044); type: functional, cell-based

O=C(CCC(=O)N1CCN(S(=O)(=O)c2ccc3ccccc3c2)CC1)Nc1cc(Cl)cc(Cl)c1
CC50 [1]: > 6.25 µM (active)
AC50 [2]: 14.2 µM (active)
AC50 [3]: 4.28 µM (active)
AC50 [4]: 3.61 µM (active)
AC50 [5]: 6.16 µM (active)

Cc1ccc(-n2nc3c(=O)n(C(C)C(=O)NCCC4=CCCCC4)nc(C)c3c2C)cc1 (stereo unspecified)
IC50 [6]: 6.62 µM (active)

Cn1nnc2cc(C(=O)NCCC3=CCCCC3)ccc21
IC50 (Protein skinhead-1): > 100 µM (inactive)
EC50 [7]: > 53 µM (inactive)
IC50 [8]: > 47.1 µM (inactive)

S=C(Nc1ccc2c[nH]nc2c1)Nc1ccc(Cl)cc1Cl
IC50 [9]: > 50 µM (not active)

CC1(C)C2CCC1(C)C(OCCNCCOC(=O)Nc1ccccc1)C2 (stereo unspecified)
AC50 [2]: 27.5 µM (active)
AC50 [3]: 8.26 µM (active)
AC50 [4]: 8.49 µM (active)
AC50 [5]: 27.6 µM (active)

Cc1ccc([N+](=O)[O-])cc1NC(=O)CCc1ccccc1
IC50 (Fatty acid synthase [10]): 17.5 µM (active)
IC50 (Fatty acid synthase [11]): 14 µM (active)

COc1ccc(OC)c(NS(=O)(=O)c2ccc(NC(C)=O)cc2)c1
IC50 [12]: > 109 µM (inactive)
IC50 [13]: > 83.3 µM (inactive)

O=C(O)c1ccc(S(=O)(=O)c2ccccc2)cc1
IC50 (Protein skinhead-1): > 100 µM (inactive)

Cc1ccc(O)c(NC(=O)c2cc([N+](=O)[O-])ccc2Cl)c1
IC50 (Fatty acid synthase [10]): 15.8 µM (active)
IC50 (Fatty acid synthase [11]): 13.4 µM (active)

Cc1cc(C)c(C(=O)COC(=O)c2cc([N+](=O)[O-])ccc2NCCO)cc1C
IC50 (Fatty acid synthase [10]): 13.3 µM (active)
IC50 (Fatty acid synthase [11]): 8.07 µM (active)

Cc1onc(-c2ccccc2Cl)c1C(=O)NCCN1CCOCC1
IC50 [12]: > 109 µM (inactive)
IC50 [13]: > 83.4 µM (inactive)

COC(=O)c1ccc(CSc2nc3ccccc3o2)cc1
IC50 (Protein skinhead-1): 41.7 µM (active)

Cc1c(C(C)C)c(=O)n(-c2ccc(S(=O)(=O)NCc3ccccc3)cc2)n1C
AC50 [14]: 1.96 µM (active)
AC50 (INS1): 2.71 µM (active)
IC50 (Protein Wnt-3a): 5.02 µM (active)
AC50 [15]: 2.48 µM (active)
AC50 [16]: 1.18 µM (active)

COc1ccccc1NC(=O)CSc1nnc(-c2ccc(NC(C)=O)cc2)n1C
IC50 [12]: > 109 µM (inactive)
IC50 [13]: > 83.3 µM (inactive)

O=C(Cc1ccc(Cl)cc1Cl)Nc1ccncc1
AC50 [14]: 6.34 µM (active)
IC50 (Protein Wnt-3a): 3.6 µM (active)
AC50 [2]: 9.95 µM (active)
AC50 [15]: 42.9 µM (active)
AC50 [16]: 2.56 µM (active)

O=[N+]([O-])c1ccc(C(O)C(CO)N=C(S)Nc2ccccc2)cc1 (stereo unspecified)
IC50 (Fatty acid synthase [10]): 24.8 µM (inactive)
IC50 (Fatty acid synthase [11]): 20.8 µM (inactive)

COC(=O)C1=C(c2ccc(-c3ccccc3)c(F)c2)C[C@@H]2CC[C@H]1N2C(=O)N1CCCC1
IC50 [6]: 8.17 µM (active)
AC50 [15]: 6.77 µM (active)
IC50 [17]: > 80 µM (inactive)
AC50 [16]: 6.06 µM (active)

CC(Cc1ccccn1)NC(=O)CCc1nnc(C2CCCCC2)o1 (stereo unspecified)
IC50 [12]: > 109 µM (inactive)
IC50 [13]: > 83.3 µM (inactive)

C[C@@H]1CCCCO[C@@H](CN(C)Cc2ccc(Cl)c(Cl)c2)[C@H](C)CN([C@H](C)CO)C(=O)c2cc(NS(=O)(=O)c3ccc(Cl)cc3)ccc2O1
AC50 (Paired box protein Pax-8): 8.68 µM (active)
AC50 [18]: 59.2 µM (active)
AC50 [19]: > 70 µM (inactive)

O=C(c1ccccc1F)N1CC(=O)N2[C@@H](CO)[C@@H](c3ccc(C#Cc4ccc(F)cc4)cc3)[C@@H]2C1
AC50 (Paired box protein Pax-8): 5.77 µM (active)
AC50 [20]: 8.76 µM (active)
AC50 [18]: 19.2 µM (active)
AC50 [19]: 41.1 µM (active)

C[C@@H]1CCCCO[C@@H](CN(C)Cc2ccc(C(F)(F)F)cc2)[C@H](C)CN([C@@H](C)CO)C(=O)c2cc(NC(=O)NC3CCCCC3)ccc2O1
AC50 (Paired box protein Pax-8): 8.39 µM (active)
AC50 [20]: 45.2 µM (active)
AC50 [18]: 50.9 µM (active)
AC50 [19]: 37.5 µM (active)

CC1(C(=O)N/N=C/c2cc3c(cc2Br)OCO3)CC1(Br)Br (stereo unspecified)
AC50 [2]: 15.2 µM (active)
AC50 [3]: 2.59 µM (active)
AC50 [4]: 3.9 µM (active)
AC50 [5]: 9.4 µM (active)
